The experiment has as its target T1, recombinant guanylate cyclase reporter cell line (Rattus norvegicus, UniProt P20595).
T1 construct: expressed in transfected cells
T1 sequence (P20595 1-619): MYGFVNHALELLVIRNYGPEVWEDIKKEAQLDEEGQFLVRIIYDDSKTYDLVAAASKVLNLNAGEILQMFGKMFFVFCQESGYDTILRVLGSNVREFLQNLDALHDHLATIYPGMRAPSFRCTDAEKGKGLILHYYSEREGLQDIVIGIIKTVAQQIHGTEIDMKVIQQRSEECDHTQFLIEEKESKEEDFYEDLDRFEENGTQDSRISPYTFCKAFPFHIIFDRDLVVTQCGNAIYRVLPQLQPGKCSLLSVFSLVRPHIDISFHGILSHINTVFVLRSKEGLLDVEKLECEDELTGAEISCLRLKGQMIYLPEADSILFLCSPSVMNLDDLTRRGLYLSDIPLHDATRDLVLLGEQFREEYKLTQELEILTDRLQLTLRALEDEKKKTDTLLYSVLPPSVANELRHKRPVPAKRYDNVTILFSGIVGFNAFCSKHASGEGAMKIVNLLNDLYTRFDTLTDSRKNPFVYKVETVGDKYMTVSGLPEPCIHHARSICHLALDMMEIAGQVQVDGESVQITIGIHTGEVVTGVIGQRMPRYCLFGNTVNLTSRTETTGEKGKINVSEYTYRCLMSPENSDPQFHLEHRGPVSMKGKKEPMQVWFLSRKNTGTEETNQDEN
T1 sequence (P19686 1-690 partner): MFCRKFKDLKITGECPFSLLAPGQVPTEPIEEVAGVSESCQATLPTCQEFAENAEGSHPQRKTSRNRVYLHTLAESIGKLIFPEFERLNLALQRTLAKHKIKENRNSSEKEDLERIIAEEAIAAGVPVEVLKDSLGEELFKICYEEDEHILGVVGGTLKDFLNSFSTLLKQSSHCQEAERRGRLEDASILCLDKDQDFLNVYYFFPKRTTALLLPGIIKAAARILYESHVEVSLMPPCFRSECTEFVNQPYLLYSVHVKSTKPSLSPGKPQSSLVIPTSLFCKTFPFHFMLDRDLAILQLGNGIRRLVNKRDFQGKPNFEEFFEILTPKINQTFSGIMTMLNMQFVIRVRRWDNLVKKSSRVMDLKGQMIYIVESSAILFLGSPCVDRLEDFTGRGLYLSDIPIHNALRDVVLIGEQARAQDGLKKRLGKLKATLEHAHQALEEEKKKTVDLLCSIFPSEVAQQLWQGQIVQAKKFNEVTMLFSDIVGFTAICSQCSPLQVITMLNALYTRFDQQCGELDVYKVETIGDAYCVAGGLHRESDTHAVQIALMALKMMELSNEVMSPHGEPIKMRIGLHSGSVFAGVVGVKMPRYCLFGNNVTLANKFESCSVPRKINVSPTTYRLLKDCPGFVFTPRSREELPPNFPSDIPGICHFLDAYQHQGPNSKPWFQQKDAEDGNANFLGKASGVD
The experiment in a line: Effect on a recombinant guanylate cyclase reporter cell line. The class given is cell-based. As to conditions: in some cases mean values from individual determinations; for MEC: MEC = minimum effective concentration; for EC50: half maximal effective concentration. As for the experimental part: The cellular activity of the compounds according to the invention was determined using a recombinant guanylate cyclase reporter cell line, as described in F. Wunder et al., Anal. Biochem. 339, 104-112 (2005).

Structures can show the parent of a compound that is named as a salt.

For the compound `CC(=O)N1CCN(c2ccc(-c3ccc(Cl)cc3N3CCCC(n4ncc(C(=O)O)c4C(F)(F)F)C3)cc2)CC1` (single isomer, unassigned) [Example 36, 1-[1-[2-[4-(4-Acetylpiperazin-1-yl)phenyl]-5-chloro-phenyl]-3-piperidyl]-5-(trifluoromethyl)pyrazole-4-carboxylic acid], the MEC is 10.0 nM and the EC50 (commonly the concentration needed to bring the measured effect to its halfway point) worked out at 35.5 nM.

Take `CCC(=O)N1CCN(c2ccc(-c3ccc(Cl)cc3N3CCCC(n4ncc(C(=O)O)c4C(F)(F)F)C3)cc2)CC1` (single isomer, unassigned) [Example 37, 1-[1-[5-Chloro-2-[4-(4-propanoylpiperazin-1-yl)phenyl]phenyl]-3-piperidyl]-5-(trifluoromethyl)pyrazole-4-carboxylic acid]: the MEC was 3.0 nM and the EC50 stood at 15.5 nM.

For the compound `CC(C)C(=O)N1CCN(c2ccc(-c3ccc(Cl)cc3N3CCCC(n4ncc(C(=O)O)c4C(F)(F)F)C3)cc2)CC1` (single isomer, unassigned) [Example 38, 1-[1-[5-Chloro-2-[4-[4-(2-methylpropanoyl)piperazin-1-yl]phenyl]phenyl]-3-piperidyl]-5-(trifluoromethyl)pyrazole-4-carboxylic acid], the MEC was 3.0 nM and the concentration giving a half-maximal response (EC50) came to 15.5 nM.

As to `CC(C)(F)C(=O)N1CCN(c2ccc(-c3ccc(Cl)cc3N3CCCC(n4ncc(C(=O)O)c4C(F)(F)F)C3)cc2)CC1` (single isomer, unassigned) [Example 39, 1-[1-[5-Chloro-2-[4-[4-(2-fluoro-2-methyl-propanoyl)piperazin-1-yl]phenyl]phenyl]-3-piperidyl]-5-(trifluoromethyl)pyrazole-4-carboxylic acid], the MEC is recorded as 10.0 nM and the EC50 worked out at 59 nM.

As for `CCCC(=O)N1CCN(c2ccc(-c3ccc(Cl)cc3N3CCCC(n4ncc(C(=O)O)c4C(F)(F)F)C3)cc2)CC1` (single isomer, unassigned) [Example 40, 1-[1-[2-[4-(4-Butanoylpiperazin-1-yl)phenyl]-5-chloro-phenyl]-3-piperidyl]-5-(trifluoromethyl)pyrazole-4-carboxylic acid], the MEC stood at 3.0 nM and the EC50 worked out at 19 nM.

For `COCCC(=O)N1CCN(c2ccc(-c3ccc(Cl)cc3N3CCCC(n4ncc(C(=O)O)c4C(F)(F)F)C3)cc2)CC1` (single isomer, unassigned) [Example 41, 1-[1-[5-Chloro-2-[4-[4-(3-methoxypropanoyl)piperazin-1-yl]phenyl]phenyl]-3-piperidyl]-5-(trifluoromethyl)pyrazole-4-carboxylic acid], the MEC is given as 3.0 nM and the concentration giving a half-maximal response (EC50) was 44 nM.

`O=C(O)c1cnn(C2CCCN(c3cc(Cl)ccc3-c3ccc(N4CCN(C(=O)C5CC5)CC4)cc3)C2)c1C(F)(F)F` (single isomer, unassigned) [Example 42, 1-[1-[5-Chloro-2-[4-[4-(cyclopropanecarbonyl)piperazin-1-yl]phenyl]phenyl]-3-piperidyl]-5-(trifluoromethyl)pyrazole-4-carboxylic acid]: the MEC came out at 1.0 nM and the EC50 is 4.2 nM.

Regarding `O=C(O)c1cnn(C2CCCN(c3cc(Cl)ccc3-c3ccc(N4CCN(C(=O)C5(F)CC5)CC4)cc3)C2)c1C(F)(F)F` (single isomer, unassigned) [Example 43, 1-[1-[5-Chloro-2-[4-[4-(1-fluorocyclopropanecarbonyl)piperazin-1-yl]phenyl]phenyl]-3-piperidyl]-5-(trifluoromethyl)pyrazole-4-carboxylic acid], the MEC is given as 1.0 nM and the 50% effective concentration (EC50) stood at 15.1 nM.

With `O=C(O)c1cnn(C2CCCN(c3cc(Cl)ccc3-c3ccc(N4CCN(C(=O)C5CC5F)CC4)cc3)C2)c1C(F)(F)F` (single isomer, unassigned) [Example 44, 1-[1-[5-Chloro-2-[4-[4-(2-fluorocyclopropanecarbonyl)piperazin-1-yl]phenyl]phenyl]-3-piperidyl]-5-(trifluoromethyl)pyrazole-4-carboxylic acid], the MEC was 10.0 nM and the EC50 was 34.5 nM.

Regarding `O=C(O)c1cnn(C2CCCN(c3cc(Cl)ccc3-c3ccc(N4CCN(C(=O)[C@H]5C[C@H]5F)CC4)cc3)C2)c1C(F)(F)F` (single isomer, unassigned) [Example 45, hydrochloride], the MEC amounted to 3.0 nM and the EC50 amounted to 14 nM.

In the case of `O=C(O)c1cnn(C2CCCN(c3cc(Cl)ccc3-c3ccc(N4CCN(C(=O)[C@@H]5C[C@@H]5F)CC4)cc3)C2)c1C(F)(F)F` (single isomer, unassigned) [Example 46], the MEC is given as 3.0 nM and the half-maximal effective concentration (EC50) is 14.5 nM.

Consider `O=C(O)c1cnn(C2CCCN(c3cc(Cl)ccc3-c3ccc(N4CCN(C(=O)C5CC5(F)F)CC4)cc3)C2)c1C(F)(F)F` (single isomer, unassigned) [Example 47, 1-[1-[5-Chloro-2-[4-[4-[2,2-difluorocyclopropanecarbonyl]piperazin-1-yl]phenyl]phenyl]-3-piperidyl]-5-(trifluoromethyl)pyrazole-4-carboxylic acid], for which the MEC came out at 3.0 nM and the EC50 came out at 17 nM.

Take `O=C(O)c1cnn(C2CCCN(c3cc(Cl)ccc3-c3ccc(N4CCN(C(=O)[C@H]5CC5(F)F)CC4)cc3)C2)c1C(F)(F)F` (single isomer, unassigned) [Example 48, 1-[1-[5-Chloro-2-[4-[4-[2,2-difluorocyclopropanecarbonyl]piperazin-1-yl]phenyl]phenyl]-3-piperidyl]-5-(trifluoromethyl)pyrazole-4-carboxylic acid]: the MEC stood at 3.0 nM and the EC50 turned out to be 10.6 nM.

On to `O=C(O)c1cnn(C2CCCN(c3cc(Cl)ccc3-c3ccc(N4CCN(C(=O)C5CCC5)CC4)cc3)C2)c1C(F)(F)F` (single isomer, unassigned) [Example 49, 1-[1-[5-Chloro-2-[4-[4-(cyclobutanecarbonyl)piperazin-1-yl]phenyl]phenyl]-3-piperidyl]-5-(trifluoromethyl)pyrazole-4-carboxylic acid hydrochloride], for which the MEC was found to be 1.0 nM and the EC50 was found to be 3.5 nM.

Take `O=C(O)c1cnn(C2CCCN(c3cc(Cl)ccc3-c3ccc(N4CCN(C(=O)C5CC(F)(F)C5)CC4)cc3)C2)c1C(F)(F)F` (single isomer, unassigned) [Example 50, 1-[1-[5-Chloro-2-[4-[4-(3,3-difluorocyclobutanecarbonyl)piperazin-1-yl]phenyl]phenyl]-3-piperidyl]-5-(trifluoromethyl)pyrazole-4-carboxylic acid]: the MEC amounted to 10.0 nM and the EC50 is 47.5 nM.

Regarding `O=C(O)c1cnn(C2CCCN(c3cc(Cl)ccc3-c3ccc(N4CCN(C(=O)C56CC(F)(C5)C6)CC4)cc3)C2)c1C(F)(F)F` (single isomer, unassigned) [Example 51, 1-[1-[5-Chloro-2-[4-[4-(3-fluorobicyclo[1.1.1]pentane-1-carbonyl)piperazin-1-yl]phenyl]phenyl]-3-piperidyl]-5-(trifluoromethyl)pyrazole-4-carboxylic acid], the MEC was 3.0 nM and the EC50 is 9.4 nM.
